Patent publication US11242334B2, “Heterocyclic compounds as kinase inhibitors, compositions comprising the heterocyclic compound, and methods of use thereof” (JS INNOPHARM (SHANGHAI) LTD, priority 2017, dated 2022)

What follows are compounds tested on Colo205 cell line (assay: Colo205 cell proliferation assay (MTT assay, WST-8 readout)). Settings: Homo sapiens; IC50 values of growth inhibition in Colo 205 cells; 72 hours.
Format: cell-based
Method: Compounds disclosed herein were tested for the inhibition of ERK2 by a Colo205 cell proliferation assay commonly known as MTT assay. In this assay, a complete media was prepared by adding 10% fetal bovine serum to RPMI-1640 medium (Life technology). Colon cancer cells (Colo205 cell line) were added to each of 88 wells of a 96 well plate at a seeding density of 5,000 cells/well/90 μL. The cells were allowed to attach to the plate by incubating at 37° C. for 24 hours. The compound was dissolved in DMSO (SIGMA). A solution of test compound was prepared in complete media by serial dilution to obtain the following concentrations: 500 μM, 150 μM, 50 μM, 15 μM, 5 μM, 1.5 μM, 0.5 μM, 0.15 μM and 0.05 μM. The test compound solution (10 μL) was added to each of 80 cell-containing wells. The final concentrations of the compound were following: 50 μM, 15 μM, 5 μM, 1.5 μM, 0.5 μM, 0.15 μM, 0.05 μM, 0.015 μM and 0.005 μM. The final concentration of DMSO is 0.5%. To the 8 remaining cell-containing wells, only complete media (containing 0.5% DMSO) was added to form a control group in order to measure maximal proliferation. To the remaining 8 empty wells, complete media was added to for a vehicle control group in order to measure background. The plates were incubated at 37° C. for 72 hours. 10 μL WST-8 solution (DOJINDO, Cell Counting KIT-8) was added to each well. The plates were further incubated at 37° C. for 2 hours, and then read for the absorbance using a microplate reader at 450 nm.
The IC50 values of growth inhibition in Colo 205 cells for Compounds disclosed are listed in Table 3, A′: ≤0.5 μM; B′: >0.5 μM and ≤1 μM; C′: >1.0 μM and ≤5 uM; D′: >5 μM.

Question: `Cc1cc(-c2n[nH]c3ccc(-c4ccn([C@H](C)c5ccnc(C(F)(F)F)c5)c(=O)c4)cc23)ccn1` (single isomer, unassigned) [Example 142B] was tested. Which IC50 did it give?
Answer: Its IC50 is no more than 500 nM.

Question: For `Cc1cc(-c2n[nH]c3ccc(-c4ccn(CCN5CCOCC5)c(=O)c4)cc23)ccn1` [Example 54, 4-(3-(2-methylpyridin-4-yl)-1H-indazol-5-yl)-1-(2-morpholinoethyl)pyridin-2(1H)-one], which IC50 is on record?
Answer: Its IC50 is greater than 5000 nM.

Question: Which IC50 does the source give for `O=c1cc(-c2ccc3[nH]nc(-c4ccc(F)cn4)c3c2)ccn1[C@H](CO)c1cc(F)cc(Br)c1` [Example 125, (S)-1-(1-(3-bromo-5-fluorophenyl)-2-hydroxyethyl)-4-(3-(5-fluoropyridin-2-yl)-1H-indazol-5-yl)pyridin-2(1H)-one] here?
Answer: Its IC50 is 500 to 1000 nM.

Question: For `O=c1cc(-c2ccc3[nH]nc(-c4ccnc(C(F)(F)F)c4)c3c2)ccn1Cc1ccnc(C(F)(F)F)c1` [Example 126, 4-(3-(2-(trifluoromethyl)pyridin-4-yl)-1H-indazol-5-yl)-1-((2-(trifluoromethyl)pyridin-4-yl)methyl)pyridin-2(1H)-one], which IC50 is on record?
Answer: The IC50 was greater than 5000 nM.

Question: Which IC50 does the source give for `Cc1cc(Cn2ccc(-c3ccc4[nH]nc(-c5ccnc(C)c5)c4c3)cc2=O)ccn1` [Example 127, 4-(3-(2-methylpyridin-4-yl)-1H-indazol-5-yl)-1-((2-methylpyridin-4-yl)methyl)pyridin-2(1H)-one] here?
Answer: The IC50 was 1000 to 5000 nM.

Question: Which IC50 does the source give for `O=c1cc(-c2ccc3[nH]nc(-c4ccc5ncnn5c4)c3c2)ccn1[C@H](CO)c1cc(F)cc(Br)c1` [Example 128, (S)-4-(3-([1,2,4]triazolo[1,5-a]pyridin-6-yl)-1H-indazol-5-yl)-1-(1-(3-bromo-5-fluorophenyl)-2-hydroxyethyl)pyridin-2(1H)-one] here?
Answer: The IC50 was no more than 500 nM.

Question: Which IC50 does the source give for `O=c1cc(-c2ccc3[nH]nc(-c4ccc5nccn5c4)c3c2)ccn1[C@H](CO)c1cc(F)cc(Br)c1` [Example 129, (S)-1-(1-(3-bromo-5-fluorophenyl)-2-hydroxyethyl)-4-(3-(imidazo[1,2-a]pyridin-6-yl)-1H-indazol-5-yl)pyridin-2(1H)-one] here?
Answer: Its IC50 is no more than 500 nM.

Question: `Cc1nc2ccc(-c3n[nH]c4ccc(-c5ccn([C@H](CO)c6cc(F)cc(Br)c6)c(=O)c5)cc34)cn2n1` [Example 130, (S)-1-(1-(3-bromo-5-fluorophenyl)-2-hydroxyethyl)-4-(3-(2-methyl-[1,2,4]triazolo[1,5-a]pyridin-6-yl)-1H-indazol-5-yl)pyridin-2(1H)-one] was tested. Which IC50 did it give?
Answer: Its IC50 is no more than 500 nM.

Question: Which IC50 does the source give for `Cc1cc(-c2n[nH]c3ccc(-c4ccn(Cc5ccc(C(F)(F)F)nc5)c(=O)c4)cc23)ccn1` [Example 131, 4-(3-(2-methylpyridin-4-yl)-1H-indazol-5-yl)-1-((6-(trifluoromethyl)pyridin-3-yl)methyl)pyridin-2(1H)-one] here?
Answer: The IC50 was 1000 to 5000 nM.

Question: Which IC50 does the source give for `CCc1cc(-c2n[nH]c3ccc(-c4ccn(Cc5ccnc(C(F)(F)F)c5)c(=O)c4)cc23)ccn1` [Example 132, 4-(3-(2-ethylpyridin-4-yl)-1H-indazol-5-yl)-1-((2-(trifluoromethyl)pyridin-4-yl)methyl)pyridin-2(1H)-one] here?
Answer: The IC50 was 1000 to 5000 nM.

Question: `O=c1cc(-c2ccc3[nH]nc(-c4ccnc(C5CC5)c4)c3c2)ccn1Cc1ccnc(C(F)(F)F)c1` [Example 133, 4-(3-(2-cyclopropylpyridin-4-yl)-1H-indazol-5-yl)-1-((2-(trifluoromethyl)pyridin-4-yl)methyl)pyridin-2(1H)-one] was tested. Which IC50 did it give?
Answer: The IC50 was 1000 to 5000 nM.

Question: With `Cc1cc(-c2n[nH]c3ccc(-c4ccn([C@H](CO)c5ccnc(C(F)(F)F)c5)c(=O)c4)cc23)ccn1` [Example 134, (S)-1-(2-hydroxy-1-(2-(trifluoromethyl)pyridin-4-yl)ethyl)-4-(3-(2-methylpyridin-4-yl)-1H-indazol-5-yl)pyridin-2(1H)-one] as the compound, how does the IC50 read?
Answer: The IC50 was 1000 to 5000 nM.

Question: Which IC50 does the source give for `Cc1cc(-c2n[nH]c3ccc(-c4ccn(Cc5nc(C(F)(F)F)cs5)c(=O)c4)cc23)ccn1` [Example 135] here?
Answer: Its IC50 is 1000 to 5000 nM.

Question: `Cc1cc(-c2n[nH]c3ccc(-c4ccn(Cc5cccnc5C(F)(F)F)c(=O)c4)cc23)ccn1` [Example 136, 4-(3-(2-methylpyridin-4-yl)-1H-indazol-5-yl)-1-((2-(trifluoromethyl)pyridin-3-yl)methyl)pyridin-2(1H)-one] was tested. Which IC50 did it give?
Answer: The IC50 was 1000 to 5000 nM.

Question: Which IC50 does the source give for `Cc1cc(-c2n[nH]c3ccc(-c4ccn(Cc5cccc(C(F)(F)F)n5)c(=O)c4)cc23)ccn1` [Example 137, 4-(3-(2-methylpyridin-4-yl)-1H-indazol-5-yl)-1-((6-(trifluoromethyl)pyridin-2-yl)methyl)pyridin-2(1H)-one] here?
Answer: Its IC50 is 500 to 1000 nM.

Question: With `Cc1nn(C)cc1-c1n[nH]c2ccc(-c3ccn([C@H](CO)c4cc(F)cc(Br)c4)c(=O)c3)cc12` [Example 138, (S)-1-(1-(3-bromo-5-fluorophenyl)-2-hydroxyethyl)-4-(3-(1,3-dimethyl-1H-pyrazol-4-yl)-1H-indazol-5-yl)pyridin-2(1H)-one] as the compound, how does the IC50 read?
Answer: Its IC50 is 500 to 1000 nM.

Question: Which IC50 does the source give for `Cc1cc(-c2n[nH]c3ccc(-c4ccn(Cc5cc(C(F)(F)F)no5)c(=O)c4)cc23)ccn1` [Example 139, 4-(3-(2-methylpyridin-4-yl)-1H-indazol-5-yl)-1-((3-(trifluoromethyl)isoxazol-5-yl)methyl)pyridin-2(1H)-one] here?
Answer: Its IC50 is 1000 to 5000 nM.

Question: `CNc1n[nH]c2ccc(-c3ccn([C@H](CO)c4cc(F)cc(Br)c4)c(=O)c3)cc12` [Example 141, (S)-1-(1-(3-bromo-5-fluorophenyl)-2-hydroxyethyl)-4-(3-(methylamino)-1H-indazol-5-yl)pyridin-2(1H)-one] was tested. Which IC50 did it give?
Answer: The IC50 was 1000 to 5000 nM.

Question: For `O=c1cc(-c2ccc3[nH]nc(C4CCOC4)c3c2)ccn1[C@H](CO)c1cc(F)cc(Br)c1` (stereo partly drawn) [Example 150, 1-((S)-1-(3-bromo-5-fluorophenyl)-2-hydroxyethyl)-4-(3-(tetrahydrofuran-3-yl)-1H-indazol-5-yl)pyridin-2(1H)-one], which IC50 is on record?
Answer: The IC50 was 1000 to 5000 nM.

Question: Which IC50 does the source give for `O=c1cc(-c2ccc3[nH]nc(N4CCC(O)C4)c3c2)ccn1[C@H](CO)c1cc(F)cc(Br)c1` (stereo partly drawn) [Example 151, 1-((S)-1-(3-bromo-5-fluorophenyl)-2-hydroxyethyl)-4-(3-(3-hydroxypyrrolidin-1-yl)-1H-indazol-5-yl)pyridin-2(1H)-one] here?
Answer: The IC50 was 1000 to 5000 nM.

Same assay, conditions: IC50 values of growth inhibition in Colo 205 cells; 72 hours

Question: How did the IC50 turn out when `Cc1cc(-c2n[nH]c3ccc(-c4ccn([C@@H](C)c5ccnc(C(F)(F)F)c5)c(=O)c4)cc23)ccn1` [Example 142A, (S)-4-(3-(2-methylpyridin-4-yl)-1H-indazol-5-yl)-1-(1-(2-(trifluoromethyl)pyridin-4-v1)ethyl)pyridin-2(1H)-one] was run?
Answer: The IC50 was 1000 to 5000 nM.
